For data set [1], the system named is tubulin (microtubular protein isolated from calf brain). As to the kind of experiment: Tubulin Polymerization Inhibition (TPI) assay, turbidity. The following applies: 1.5 mg/mL microtubular protein; for TPI % 10 µM: compound at 10 µM. The format is biochemical. Here is the method:
The effect of all the synthesized compounds on the in vitro tubulin polymerization was evaluated at 10 µM. All the compounds that inhibited polymerization more than 30% were also assayed at 20 µM. IC50 values were calculated for those compounds inhibiting tubulin polymerization by at least 50% at 20 µM (Table 1 and Supplemental Figure S2).
Microtubular protein was isolated from calf brain according to the modified Shelanski method by two cycles of temperature-dependent assembly/disassembly and stored at −80 °C. Before each use, protein concentration was determined by the Bradford method taking BSA as standard.
Tubulin polymerization was monitored using a Helios α spectrophotometer by measuring the increase in turbidity at 450 nm, caused by a shift from 4 °C to 37 °C, which allows the in vitro microtubular protein to depolymerize and polymerize, respectively. The assay was carried out in quartz cuvettes containing 1.5 mg/mL microtubular protein and the ligand (except for control cuvette with only DMSO at the same concentration) in a mixture of 0.1 M MES buffer, 1 mM EGTA, 1 mM MgCl2, 1 mM β-ME, and 1.5 mM GTP at pH 6.7 (final volume 500 µL). Cuvettes were preincubated at 20 °C for 30 min, to allow ligand binding to tubulin, and subsequently cooled on ice for 10 min. Then, the experiment starts at 4 °C to establish the initial baseline. The assembly process was initiated by a temperature shift to 37 °C and the turbidity produced by tubulin polymerization can be measured by an absorbance increase. After reaching a stable plateau, the temperature was switched back to 4 °C to return to the initial absorption values (to confirm the reversible nature of the monitored process and to determine whether or not the microtubular tubular protein has stabilized). The difference in amplitude between the stable plateau and the initial baseline of the curves was taken as the degree of tubulin polymerization for each experiment. Comparison with control curves under identical conditions but without ligands yielded TPI as a percentage value. All compounds were tested at 10 µM concentration. Compounds that inhibited tubulin polymerization by at least 30% at 10 µM were tested at 20 µM. IC50 values were calculated for compounds that inhibit tubulin polymerization by more than 50% at 20 µM. Compounds were dissolved in DMSO, and the final solvent concentration never exceeded 4% (v/v), which has been reported not to interfere with the assembly process. All the measurements were carried out in at least two independent experiments using microtubular protein from different preparations.

Data set [2] is described as follows: Aqueous solubility, saturation shake-flask method, UV absorbance. Conditions: phosphate buffer, pH 7, aqueous buffer, thermodynamic from solid.
Procedure: UV absorbance at three maximum absorbance wavelengths of selected compounds was measured after 48 h shaking and subsequent microfiltration.
The aqueous solubility of the sulfonamides was determined using an approach based on the saturation shake-flask method. Tested compounds (1–2 mg) were stirred in pH 7.0 phosphate buffer (300 µL) for 48 h at room temperature. The resulting suspension was filtered over a 45 µm filter to discard insoluble residues, and the concentration in the supernatant was measured by UV absorbance. To determine the concentration, a scan between 270 and 400 nm was performed in a Helios-α UV-320 Spectrophotometer (Thermo-Spectronic, Thermo Fischer Scientific, Waltham, MA, USA) for each tested compound. Then, three maximum wavelengths of absorbance per compound were selected from the previous scan and calibration curves were performed at these three wavelengths. Solubility results are given as the average of the three measurements.

Values after ≈ are worked out from the molar mass of the structure shown.

As a reminder, the IC50 is the concentration that inhibits the measured activity by half. Low readings indicate greater potency, high ones weaker potency. What is called solubility is how much of the substance goes into solution per volume. Low values mean little dissolved substance, high ones much dissolved substance. Broadly, the melting point is the temperature, or range, at which the solid turns liquid.

As for `COc1ccc(S(=O)(=O)N(Cc2ccccc2)c2cc(OC)c(OC)c(OC)c2)cc1` [Compound 9], in data set [1], the 50% inhibitory concentration (IC50) is more than 20 µM and the “TPI % 10 µM” value was 21%.
`COc1ccc(S(=O)(=O)Nc2cc(OC)c(OC)c(OC)c2NC(=O)CNC(=O)OC(C)(C)C)cc1` [Compound 21]: in data set [1], the IC50 is more than 20 µM and the “TPI % 10 µM” value came to 0%. The compound also displayed a solubility at 48 h in data set [2] of 357 µg/mL (≈ 679 µM).
The corresponding values for `COc1ccc(S(=O)(=O)N(c2cc(OC)c(OC)c(OC)c2)S(=O)(=O)c2ccc(OC)cc2)cc1` [Compound 1b] are more than 20 µM, 0% and 108 µg/mL (≈ 206 µM).
Take `CCOC(=O)CNc1cc(S(=O)(=O)N(CC(=O)OCC)c2cc(OC)c(OC)c(OC)c2)ccc1OC` [Compound 47]: in data set [1], the IC50 is more than 20 µM and the “TPI % 10 µM” value amounted to 0%.
The corresponding values for `COc1ccc(S(=O)(=O)N(C)c2cc(OC)c(OC)c(OC)c2N(C)C)cc1` [Compound 19] are more than 20 µM and 0%.
In turn, `COc1cc(N(C)S(=O)(=O)c2ccc(N(C)C)cc2)cc(OC)c1OC` [Compound 29a] had a melting point of 134 to 140 °C. For the same compound, in data set [1], the IC50 is more than 20 µM and the “TPI % 10 µM” value stood at 40%. The same compound came in with a solubility at 48 h in data set [2] of 7 µg/mL (≈ 18.4 µM).
As to `COc1ccc(S(=O)(=O)N(C(=O)OCc2ccccc2)c2cc(OC)c(OC)c(OC)c2)cc1` [Compound 10], in data set [1], the IC50 was more than 20 µM and the “TPI % 10 µM” value is reported as 11%.
For the compound `COc1ccc(S(=O)(=O)Nc2cc(OC)c(OC)c(OC)c2)cc1N` [Compound 41], in data set [1], the IC50 is more than 20 µM and the “TPI % 10 µM” value is given as 15%. This compound displayed a solubility at 48 h in data set [2] of 89 µg/mL (≈ 242 µM).
`COc1ccc(S(=O)(=O)N(C)c2cc(OC)c(OC)c(OC)c2)cc1N(C)C` [Compound 48b]: in data set [1], the IC50 is more than 20 µM and the “TPI % 10 µM” value turned out to be 0%.
For `COc1cc(NS(=O)(=O)c2ccc(N)cc2)cc(OC)c1OC` [Compound 26], the melting point was 177 to 179 °C. Besides, in data set [1], the IC50 is more than 20 µM and the “TPI % 10 µM” value is given as 0%. The same compound yielded a solubility at 48 h in data set [2] of 28 µg/mL (≈ 82.7 µM).
For the compound `COc1ccc(S(=O)(=O)Nc2cc(OC)c(OC)c(OC)c2)cc1[N+](=O)[O-]` [Compound 40], in data set [1], the IC50 is more than 20 µM and the “TPI % 10 µM” value was 0%.
The corresponding values for `COc1cc(N(Cc2ccccc2)S(=O)(=O)c2ccc(N(C)C)cc2)cc(OC)c1OC` [Compound 35a] are 5.3 µM and 72%.
`COc1cc(NS(=O)(=O)c2ccc([N+](=O)[O-])cc2)cc(OC)c1OC` [Compound 25] registered a melting point of 138 to 140 °C. Besides, in data set [1], the IC50 is more than 20 µM and the “TPI % 10 µM” value was determined as 0%.
The like results for `CCOC(=O)CN(c1cc(OC)c(OC)c(OC)c1)S(=O)(=O)c1ccc(OC)cc1` [Compound 7] were, in that order, 123 to 127 °C, more than 20 µM and 21%.
As to `COc1ccc(S(=O)(=O)n2cnc3c(OC)c(OC)c(OC)cc32)cc1` [Compound 24], in data set [1], the IC50 is more than 20 µM and the “TPI % 10 µM” value is 0%.
As for `COc1cc(N(CC#N)S(=O)(=O)c2ccc(N(C)C)cc2)cc(OC)c1OC` [Compound 32], in data set [1], the IC50 is more than 20 µM and the “TPI % 10 µM” value was found to be 17%. Moreover, in data set [2], the solubility at 48 h was 8 µg/mL (≈ 19.7 µM).
The like results for `COc1cc(NS(=O)(=O)c2ccc(NC=O)cc2)cc(OC)c1OC` [Compound 36] were, in that order, more than 20 µM, 0% and 27 µg/mL (≈ 73.7 µM).
With `COc1ccc(S(=O)(=O)N(CC(=O)O)c2cc(OC)c(OC)c(OC)c2)cc1` [Compound 8], the melting point fell in the range of 151 to 158 °C. In data set [1], the IC50 is more than 20 µM and the “TPI % 10 µM” value turned out to be 0%.
As for `CCN(c1cc(OC)c(OC)c(OC)c1)S(=O)(=O)c1ccc(OC)c(N)c1` [Compound 43], in data set [1], the IC50 was more than 20 µM and the “TPI % 10 µM” value turned out to be 37%. The same compound showed a solubility at 48 h in data set [2] of 58 µg/mL (≈ 146 µM).
Take `COc1cc(NS(=O)(=O)c2ccc(N(C)C)cc2)cc(OC)c1OC` [Compound 28]: in data set [1], the IC50 is more than 20 µM and the “TPI % 10 µM” value was found to be 0%. The compound also displayed a solubility at 48 h in data set [2] of 15 µg/mL (≈ 40.9 µM).
The like results for `COc1ccc(S(=O)(=O)Nc2cc(OC)c(OC)c(OC)c2Br)cc1` [Compound 20] were, in that order, more than 20 µM, 0% and 87 µg/mL (≈ 201 µM).
Consider `COc1ccc(/C=C\c2cc(OC)c(OC)c(OC)c2)cc1O` [Combretastatin A-4, reference compound], for which, in data set [1], the IC50 turned out to be […] and the “TPI % 10 µM” value came to […].
On to `COc1cc(N(C(C)=O)S(=O)(=O)c2ccc(N(C)C)cc2)cc(OC)c1OC` [Compound 31], for which, in data set [1], 14 µM corresponded to half-maximal inhibition (IC50) and the “TPI % 10 µM” value is 38%. Further, in data set [2], the solubility at 48 h was 18 µg/mL (≈ 44.1 µM).
Take `COc1ccc(S(=O)(=O)N(C)c2cc(OC)c(OC)c(OC)c2N)cc1` [Compound 13]: in data set [1], the IC50 was more than 20 µM and the “TPI % 10 µM” value is on record as 0%.
On to `COc1ccc(S(=O)(=O)N(CC#N)c2cc(OC)c(OC)c(OC)c2)cc1` [Compound 6], for which, in data set [1], the IC50 was more than 20 µM and the “TPI % 10 µM” value is 0%. Also, the solubility at 48 h in data set [2] was determined as 33 µg/mL (≈ 84.1 µM).
Turning to `COc1ccc(S(=O)(=O)Nc2cc(OC)c(OC)c(OC)c2NC=O)cc1` [Compound 17], in data set [1], the IC50 is more than 20 µM and the “TPI % 10 µM” value is recorded as 4%.
In the case of `COc1ccc(S(=O)(=O)Nc2cc(OC)c(OC)c(OC)c2NC(C)=O)cc1` [Compound 15], in data set [1], the IC50 is more than 20 µM and the “TPI % 10 µM” value is 0%. The compound further showed a solubility at 48 h in data set [2] of 230 µg/mL (≈ 560 µM).
The corresponding values for `COc1ccc(S(=O)(=O)Nc2cc(OC)c(OC)c(OC)c2[N+](=O)[O-])cc1` [Compound 11] are more than 20 µM, 10% and 88 µg/mL (≈ 221 µM).
On to `CCOC(=O)CN(c1cc(OC)c(OC)c(OC)c1)S(=O)(=O)c1ccc(N(C)C)cc1` [Compound 33], for which, in data set [1], the IC50 is more than 20 µM and the “TPI % 10 µM” value was 14%.
As to `COc1ccc(S(=O)(=O)Nc2cc(OC)c(OC)c(OC)c2N)cc1` [Compound 12], in data set [1], the IC50 was more than 20 µM and the “TPI % 10 µM” value was 0%. In addition, the solubility at 48 h in data set [2] is 158 µg/mL (≈ 429 µM).
Regarding `COc1cc(N(C(=O)OCc2ccccc2)S(=O)(=O)c2ccc(N(C)C)cc2)cc(OC)c1OC` [Compound 35b], in data set [1], the IC50 was more than 20 µM and the “TPI % 10 µM” value was found to be 0%.
The like results for `COc1ccc(S(=O)(=O)Nc2cc(OC)c(OC)c(OC)c2NCN(c2cc(OC)c(OC)c(OC)c2N)S(=O)(=O)c2ccc(OC)cc2)cc1` [Compound 14] were, in that order, more than 20 µM and 0%.
The corresponding values for `CNc1cc(S(=O)(=O)N(C)c2cc(OC)c(OC)c(OC)c2)ccc1OC` [Compound 48a] are more than 20 µM and 2%.
The corresponding values for `COc1ccc(S(=O)(=O)N(CCBr)c2cc(OC)c(OC)c(OC)c2)cc1` [Compound 4] are more than 20 µM and 30%.
As to `CCOC(=O)CNc1cc(S(=O)(=O)N(C)c2cc(OC)c(OC)c(OC)c2)ccc1OC` [Compound 46], in data set [1], the IC50 is more than 20 µM and the “TPI % 10 µM” value came out at 13%.
The like results for `COc1ccc(S(=O)(=O)Nc2cc(OC)c(OC)c(OC)c2N(C)C)cc1` [Compound 18] were, in that order, more than 20 µM and 0%.
For `COc1ccc(S(=O)(=O)N(C)c2cc(OC)c(OC)c(OC)c2NC(C)=O)cc1` [Compound 16], the melting point lay in the range of 205 to 210 °C. In data set [1], the IC50 is more than 20 µM and the “TPI % 10 µM” value is 0%.
As to `COc1ccc(S(=O)(=O)n2nnc3c(OC)c(OC)c(OC)cc32)cc1` [Compound 23], in data set [1], the IC50 was more than 20 µM and the “TPI % 10 µM” value is recorded as 0%. For the same compound, the concentration in solution in data set [2] (solubility at 48 h) came to 41 µg/mL (≈ 108 µM).
For the compound `COc1cc(N(C)S(=O)(=O)c2ccc(N)cc2)cc(OC)c1OC` [Compound 27], in data set [1], the IC50 was more than 20 µM and the “TPI % 10 µM” value is 0%. For the same compound, the concentration in solution in data set [2] (solubility at 48 h) was 25 µg/mL (≈ 70.9 µM).
As to `CCN(c1cc(OC)c(OC)c(OC)c1)S(=O)(=O)c1ccc(N(C)C)cc1` [Compound 30], in data set [1], the IC50 is more than 20 µM and the “TPI % 10 µM” value worked out at 45%. For the same compound, the concentration in solution in data set [2] (solubility at 48 h) came to 6 µg/mL (≈ 15.2 µM).
`COc1cc(N(CC(=O)O)S(=O)(=O)c2ccc(N(C)C)cc2)cc(OC)c1OC` [Compound 34] showed a melting point of 168 to 170 °C. Moreover, in data set [1], the IC50 is more than 20 µM and the “TPI % 10 µM” value is on record as 6%.
